In brackets after ≈: the same amount, converted by molar mass.
Tests used:
[1] = system: vancomycin resistant Enterococci (VRE); assay: Assay for in vitro antibacterial activity, agar dilution (VRE); details: Enterococcus, read-out: Minimum Inhibitory Concentration (MIC50) VRE
[2] = Assay for solubility in distilled water (turbidity by naked eye); format: physicochemical; details: average of three runs; for solubility at 2 min: thermodynamic from solid
Method: The derivatives of the present invention were added to 200 μl of distilled water and then the solution was stirred for 2 minutes. The turbidity of the solution was watched through naked eye.
When the derivatives were not dissolved completely, 50 μl of distilled water was added to the solution and then the turbidity of the solution was assayed in the above manner to find a point of becoming transparent solution.
When 2 mg of the derivatives was first added to distilled water and completely dissolved so that the solution became transparent, 2 mg of the derivatives was added more to the solution and then state of the solution was watched. The derivatives of the present invention were added to the five times and then solubility of the solution was assayed for. The assay for solubility was carried out the three times repeatedly in the above method and the results were averaged.

[3] = system: methicillin resistant Staphylococcus aureus (MRSA); assay: Assay for in vitro antibacterial activity, agar dilution (MRSA); details: read-out: Minimum Inhibitory Concentration (MIC50) MRSA
ICR mice = assay: Test of acute toxicity by oral administration to mouse; format: in vivo; details: 1% hydroxypropylmethylcellulose, observed 2 weeks
Method: To test acute toxicity of the compounds of the present invention, the following experiment was carried out.
A mixture of 1% hydroxypropylmethylcellulose and 200 mg of one selected from the group consisting of the compounds 10, 12, 16, 17, 20, 22, 24 and 27 was administrated to 5 ICR mice (5-Week old males, 20 g±2 g by weight). And then lethality for 2 weeks, weight, symptoms etc. was watched to determine Minimum Lethal Dose (MLD, mg/kg). […]

Row | Structure (SMILES) | MIC50 [1] [µg/mL] | solubility at 2 min [2] [µg/mL] | MIC50 [3] [µg/mL] | Minimum Lethal Dose (MLD) (ICR mice) [mg/kg] | Solubility [2] [µg/mL]
1 | Cn1nnc(-c2ccc(-c3ccc(N4C[C@H](CO)OC4=O)cc3F)cn2)n1 [Compound 10, (R)-3-(4-(2-(2-methyltetrazol-5-yl)pyridin-5-yl)-3-fluorophenyl)-5-hydroxymethyl oxazolidin-2-one] | 0.25 (≈ 0.675 µM) | 10 (≈ 27 µM) | 0.5 (≈ 1.35 µM) | >1000 | –
2 | Cn1nnc(-c2ccc(-c3ccc(N4C[C@H](COC(=O)CN)OC4=O)cc3F)cn2)n1 [Compound 12, (R)-3-(4-(2-(2-methyltetrazol-5-yl)pyridin-5-yl)-3-fluorophenyl)-5-glycyloxymethyl oxazolidin-2-one trifluoroacetic acid] | – | – | – | >1000 | 28000 (≈ 65500 µM)
3 | Cc1nnc(-c2ccc(-c3ccc(N4C[C@H](CO)OC4=O)cc3F)cn2)o1 [Compound 16, (R)-3-(4-(2-(2-methyl-[1,3,4]oxadiazol-5-yl)pyridin-5-yl)-3-fluorophenyl)-5-hydroxymethyl oxazolidin-2-one] | 1 (≈ 2.7 µM) | 20 (≈ 54 µM) | 0.5 (≈ 1.35 µM) | >1000 | –
4 | O=C1O[C@@H](CO)CN1c1ccc(-c2ccc(-n3cncn3)nc2)c(F)c1 [Compound 17, (R)-3-(4-(2-[1,2,4]triazol-1-ylpyridin-5-yl)-3-fluorophenyl)-5-hydroxymethyl oxazolidin-2-one] | 1 (≈ 2.81 µM) | – | 1 (≈ 2.81 µM) | >1000 | –
5 | CC(C)[C@H](N)C(=O)OC[C@H]1CN(c2ccc(-c3ccc(-c4nnn(C)n4)nc3)c(F)c2)C(=O)O1 [Compound 20, (R)-3-(4-(2-(2-methyltetrazol-5-yl)pyridin-5-yl)-3-fluorophenyl)-5-(L-valyloxy)methyl oxazolidin-2-one trifluoroacetic acid] | – | – | – | >1000 | 4700 (≈ 10000 µM)
6 | NCC(=O)OC[C@H]1CN(c2ccc(-c3ccc(-n4ccnn4)nc3)c(F)c2)C(=O)O1 [Compound 22, (R)-3-(4-(2-([1,2,3]triazol-1-yl)pyridin-5-yl)-3-fluorophenyl)-5-glycyloxymethyl oxazolidin-2-one trifluoroacetic acid] | 1 (≈ 2.42 µM) | – | 1 (≈ 2.42 µM) | >1000 | –
7 | O=C1O[C@@H](CO)CN1c1ccc(-c2ccc(-n3ccnn3)nc2)c(F)c1 [Compound 24, (R)-3-(4-(2-([1,2,3]triazol-1-yl)pyridin-5-yl)-3-fluorophenyl)-5-hydroxymethyl oxazolidin-2-one] | 0.5 (≈ 1.41 µM) | – | 0.5 (≈ 1.41 µM) | >1000 | –
8 | Cc1nnc(-c2ccc(-c3ccc(N4C[C@H](COC(=O)CN)OC4=O)cc3F)cn2)o1 [Compound 27, (R)-3-(4-(2-(2-methyl-[1,3,4]oxadiazole-5-yl)pyridin-5-yl)-3-fluorophenyl)-5-glycyloxymethyl oxazolidin-2-one trifluoroacetic acid] | – | > 50000 | – | >1000 | –
9 | Cc1nnc(-c2ccc(-c3ccc(N4C[C@H](COC(=O)[C@H](C)N)OC4=O)cc3F)cn2)o1.Cl [Compound 52, (R)-3-(4-(2-(2-methyl-[1,3,4]oxadiazol-5-yl)pyridin-5-yl)-3-fluorophenyl)-5-(L-alanyloxy)methyl oxazolidin-2-one hydrochloride] | 1 | > 50000 | 0.5 | – | –
10 | Cc1nnc(-c2ccc(-c3ccc(N4C[C@H](COC(=O)[C@@H](N)C(C)C)OC4=O)cc3F)cn2)o1.Cl [Compound 54, (R)-3-(4-(2-(2-methyl-[1,3,4]oxadiazol-5-yl)pyridin-5-yl)-3-fluorophenyl)-5-(L-valyloxy)methyl oxazolidin-2-one hydrochloride] | 1 | 2900 | 0.5 | – | –
11 | Cc1nnc(-c2ccc(-c3ccc(N4C[C@H](COC(=O)[C@@H]5CCCN5)OC4=O)cc3F)cn2)o1.Cl [Compound 56, (R)-3-(4-(2-(2-methyl-[1,3,4]oxadiazol-5-yl)pyridin-5-yl)-3-fluorophenyl)-5-(L-prolinyloxy)methyl oxazolidin-2-one hydrochloride] | 1 | > 50000 | 0.5 | – | –
12 | Cc1nnc(-c2ccc(-c3ccc(N4C[C@H](COC(=O)CCN)OC4=O)cc3F)cn2)o1.Cl [Compound 58, (R)-3-(4-(2-(2-methyl-[1,3,4]oxadiazol-5-yl)pyridin-5-yl)-3-fluorophenyl)-5-(β-alanyloxy)methyl oxazolidin-2-one hydrochloride] | 1 | 5500 | 0.5 | – | –
13 | Cn1nnc(-c2ccc(-c3ccc(N4C[C@H](COP(=O)([O][Na+])[O][Na+])OC4=O)cc3F)cn2)n1 [Compound 59, (R)-[3-(4-(2-(2-methyltetrazol-5-yl)pyridin-5-yl)-3-fluorophenyl)-2-oxo-5-oxazolidinyl]methyl disodiumphosphate] | 0.25 | > 50000 | 0.5 | – | –
14 | Cc1nnc(-c2ccc(-c3ccc(N4C[C@H](COP(=O)([O][Na+])[O][Na+])OC4=O)cc3F)cn2)o1 [Compound 60, (R)-[3-(4-(2-(2-methyl-[1,3,4]oxadiazol-5-yl)pyridin-5-yl)-3-fluorophenyl)-2-oxo-5-oxazolidinyl]methyl disodiumphosphate] | 1 | > 50000 | 0.5 | – | –
15 | Cn1nnnc1-c1ccc(-c2ccc(N3C[C@H](COP(=O)([O-])[O-])OC3=O)cc2F)cn1.[Na+].[Na+] [Compound 70, (R)-[3-(4-(2-(1-methyltetrazol-5-yl)pyridin-5-yl)-3-fluorophenyl)-2-oxo-5-oxazolidinyl]methyl disodiumphosphate] | 0.25 | > 50000 | 0.5 | – | –

Reference: patent US8420676B2, “Oxazolidinone derivatives” (Dong-A Pharmaceuticals Co. Ltd., priority 2003, dated 2013)
